Results: US20090221549A1, “ANTIHYPERTENSIVE THERAPY” (Gilead Colorado, Inc., priority 2006, published 2009)

Experiments:
[1] = system: patients with resistant hypertension; experiment: Safety and tolerability assessments in the clinical study; assay type: in vivo, human; conditions: for Treatment-emergent adverse events, Patients, %: n = 76
Description: (§1) In this randomized, double-blind, placebo-controlled, dose-titration study, patients were randomized 2:1 to receive escalating doses of darusentan or placebo once daily in the morning for 10 weeks after completing a 2-week placebo run-in period (FIG. 1). Darusentan was initiated at a dose of 10 mg/day and escalated every 2 weeks at doses of 50, 100 and 150 mg/day until reaching a maximum of 300 mg/day. […] Patients were withdrawn from the study if a subsequent dose reduction was required. After completion of the 10-week treatment period, patients were withdrawn from study medication over a maximum of 2 weeks. This study was approved by an Institutional Review Board/Independent Ethics Committee and conducted in accordance with the principles of Good Clinical Practices and the revised Declaration of Helsinki.
Physical examinations, vital sign measurements, clinical chemistry and hematologic laboratory tests, and electrocardiography were performed at the screening visit and periodically throughout the study. Blood samples were obtained at baseline and at weeks 4 and 10 during study drug treatment to monitor liver function. Additional blood samples were drawn from male patients at baseline and week 10 to assess follicle stimulating hormone, inhibin B, luteinizing hormone and testosterone levels. Male fertility was assessed by analysis of semen samples obtained within 2 weeks before baseline and within 2 weeks before week 10. Adverse events were monitored throughout the study.
(§2) A nonlinear mixed effect model was used for the analysis of change in blood pressure, with comorbidity status as a covariate. This model used all observed blood pressure measurements with no imputation for missing values. Linear contrast statements were used to test the slope through a given time point to test the effect of the dose administered on that week. Estimates of treatment effect were obtained via least square means. Response rates were compared with logistic regression models at each blood pressure measurement with comorbidity status as a covariate; missing values were imputed with last observation carried forward for these models. Safety summaries include all patients who received ≧1 dose of blinded study medication.

[2] = system: patients with moderate hypertension; conditions: 10 to 100 mg/day, no other antihypertensive drugs; cited from earlier work
[3] = system: patients with resistant hypertension; experiment: Trough/peak sitting blood pressure by standard sphygmomanometry, randomized placebo-controlled dose-titration study; assay type: in vivo, human; conditions: for Percent of patients achieving SBP goal, Responders, n (%): n = 76
Description: In this randomized, double-blind, placebo-controlled, dose-titration study, 115 patients with resistant hypertension as defined by JNC 7 guidelines were randomized 2:1 to receive escalating doses of darusentan (10, 50, 100, 150 and 300 mg) or placebo once daily for 10 weeks. Darusentan dose was increased every 2 weeks.
Patients (35 to 85 years of age) with resistant hypertension as defined by the JNC 7 guidelines and who were treated with and adhered to full doses of JNC 7 recommended antihypertensives, including a diuretic and two or more antihypertensive medications from different drug classes, defined as (a) ACE inhibitors and angiotensin II receptor blockers, (b) beta-adrenergic receptor blockers, and (c) calcium channel blockers, were eligible to participate in the study. Patients also were required to have an estimated glomerular filtration rate (GFR) ≧30 mL/min/1.73 m^2 during the screening period. Women of childbearing potential were required to have a negative serum pregnancy test at the screening visit and a negative urine pregnancy test at baseline, and they must have agreed to use a reliable double-barrier method of contraception throughout the study and for at least 4 weeks after the last study visit. Patients with an average sitting SBP ≧180 mmHg, […], hemoglobin A1c >10%, hemoglobin concentration <10 g/dL, hematocrit <30%, serum thyroid stimulating hormone concentration >1.5× the upper limit of normal (ULN), or serum alanine aminotransferase (ALT) or aspartate aminotransferase (AST)>2×ULN during the screening period were excluded from the study. […] All patients provided written informed consent.
as §1
(§3) Co-primary efficacy endpoints were the changes from baseline through weeks 8 and 10 (i.e., doses of 150 and 300 mg) in trough sitting SBP. Blood pressure was measured at every study visit (baseline and weeks 2, 4, 6, 8 and 10) using standard sphygmomanometry. Secondary variables included 24-hour SBP as measured by ambulatory blood pressure monitoring (ABPM), percentage of patients who achieved SBP goal, trough sitting DBP, and urinary albumin to creatinine ratio. Ambulatory blood pressure monitoring was recorded once before randomization and repeated during the 24 hours immediately preceding the week 10 study visit. Urine samples for determination of albumin to creatinine ratio were collected at screening, baseline and week 10.
as §2, with “medication. […]” for “medication.”

[4] = system: patients with resistant hypertension; experiment: 24-hour ambulatory blood pressure monitoring (ABPM) at week 10; assay type: in vivo, human
Description: as §1, §3
A nonlinear mixed effect model was used for the analysis of change in blood pressure, with comorbidity status as a covariate. This model used all observed blood pressure measurements with no imputation for missing values. Linear contrast statements were used to test the slope through a given time point to test the effect of the dose administered on that week. Estimates of treatment effect were obtained via least square means. […]

[5] = system: patients with resistant hypertension; experiment: Urinary albumin to creatinine ratio (renal function); assay type: in vivo, human; conditions: for Albumin to creatinine ratio, % Change from baseline, Mean: week 10
Description: as §3

## COc1cc(OC)nc(O[C@H](C(=O)O)C(OC)(c2ccccc2)c2ccccc2)n1 [Darusentan, (+)-(S)-2-[(4,6-dimethoxy-2-pyrimidinyl)oxy]-3-methoxy-3,3-diphenylpropionic acid]
[1]; 10-week treatment
  patients with elevations in ALT or AST >2×ULN: no
[1]; Arthralgia
  Treatment-emergent adverse events, Patients, %: (3) %
[1]; Diarrhea
  Treatment-emergent adverse events, Patients, %: (1) %
[1]; Dizziness
  Treatment-emergent adverse events, Patients, %: (7) %
[1]; Gastroenteritis
  Treatment-emergent adverse events, Patients, %: (5) %
[1]; Nasopharyngitis
  Treatment-emergent adverse events, Patients, %: (7) %
[1]; Sinusitis
  Treatment-emergent adverse events, Patients, %: (8) %
[1]; Upper respiratory tract infection
  Treatment-emergent adverse events, Patients, %: (5) %
[1]; all events mild
  patients with decrease in hematocrit reported as adverse event: 2 patients
  patients with decrease in hemoglobin reported as adverse event: 2 patients
[1]; darusentan group
  cases of severe peripheral edema: one case
  serious adverse events considered related to study medication: None and no drug-related serious adverse events
[2]
  effect on SBP and DBP by comparison with placebo: significantly reduce
[3]; 10 to 300 mg once daily, titrated every 2 weeks
  improvements in trough sitting SBP and DBP, dose relation: dose dependent
[3]; Week 2 (10 mg)
  Percent of patients achieving SBP goal, Responders, n (%): 23 (30.3) n (%)
[3]; Week 4 (50 mg)
  Percent of patients achieving SBP goal, Responders, n (%): 36 (47.4) n (%)
[3]; Week 6 (100 mg)
  Percent of patients achieving SBP goal, Responders, n (%): 34 (44.7) n (%)
[3]; Week 8 (150 mg)
  Percent of patients achieving SBP goal, Responders, n (%): 32 (42.1) n (%)
[3]; Week 10 (300 mg)
  Percent of patients achieving SBP goal, Responders, n (%): 37 (48.7) n (%)
[3]; end of treatment (week 10), placebo 28%
  patients achieving SBP goal (JNC 7): 49%
[4]; 300 mg
  placebo-adjusted reduction in mean 24-hour systolic ABP: 9.2±2.2 mmHg
[4]; placebo 2.2±2.4 mmHg
  decrease in day-time SBP (ABP): 10.9±1.4 mmHg
[4]; placebo 3.8±2.7 mmHg
  decrease in night-time SBP (ABP): 11.9±1.6 mmHg
[5]; All observed patients, n 65, baseline 12.6
  Geometric mean albumin to creatinine ratio, Week 10: 9.4 mg/g
[5]; All observed patients
  Albumin to creatinine ratio, % Change from baseline, Mean: −25.3%
[5]; Baseline ratio >30 mg/g, n 12, baseline 145.4
  Geometric mean albumin to creatinine ratio, Week 10: 73.6 mg/g
[5]; Baseline ratio >30 mg/g
  Albumin to creatinine ratio, % Change from baseline, Mean: −49.4%
[5]; Baseline ratio ≦30 mg/g, n 53, baseline 7.2
  Geometric mean albumin to creatinine ratio, Week 10: 5.9 mg/g
[5]; Baseline ratio ≦30 mg/g
  Albumin to creatinine ratio, % Change from baseline, Mean: −18.4%
